From paper PMC13110330, “Design, Synthesis, and Evaluation of New Polyhydroxylated B is‐Chalcones as Potential COX‐2 Selective Inhibitors” (Chemmedchem, 2026)

Legend:
human recombinant COX‐1 = biological target: T1, human recombinant COX‐1 (Homo sapiens, UniProt P23219); assay: In vitro fluorometric COX‐1 inhibitory assay; assay type: biochemical; details: mean ± SEM; for IC50: human recombinant enzyme
T1 construct: purchased Sigma Chemical Co. (St. Louis, MO, USA)
Description: The COX‐1/2 inhibitory potential of bis‐chalcones was assessed with an in vitro fluorometric assay, based on the protocol outlined by Sigma‐Aldrich in their COX‐2 Inhibitor Screening Kit.
To conduct the assay, human recombinant COX‐1 or COX‐2 (2.5 ng/µL) was combined with diluted hemin (1 µM), COX cofactor, and ampliflu red (100 µM) in assay buffer (trizma hydrochloride pH = 8.0 and EDTA 0.1 µM).

human recombinant COX‐2 = biological target: T2, human recombinant COX‐2 (Homo sapiens, UniProt P35354); assay: In vitro fluorometric COX‐2 inhibitory assay and selectivity index; assay type: biochemical; details: for IC50: human recombinant enzyme
T2 construct: purchased Sigma Chemical Co. (St. Louis, MO, USA)
T2 sequence (P35354 18-604): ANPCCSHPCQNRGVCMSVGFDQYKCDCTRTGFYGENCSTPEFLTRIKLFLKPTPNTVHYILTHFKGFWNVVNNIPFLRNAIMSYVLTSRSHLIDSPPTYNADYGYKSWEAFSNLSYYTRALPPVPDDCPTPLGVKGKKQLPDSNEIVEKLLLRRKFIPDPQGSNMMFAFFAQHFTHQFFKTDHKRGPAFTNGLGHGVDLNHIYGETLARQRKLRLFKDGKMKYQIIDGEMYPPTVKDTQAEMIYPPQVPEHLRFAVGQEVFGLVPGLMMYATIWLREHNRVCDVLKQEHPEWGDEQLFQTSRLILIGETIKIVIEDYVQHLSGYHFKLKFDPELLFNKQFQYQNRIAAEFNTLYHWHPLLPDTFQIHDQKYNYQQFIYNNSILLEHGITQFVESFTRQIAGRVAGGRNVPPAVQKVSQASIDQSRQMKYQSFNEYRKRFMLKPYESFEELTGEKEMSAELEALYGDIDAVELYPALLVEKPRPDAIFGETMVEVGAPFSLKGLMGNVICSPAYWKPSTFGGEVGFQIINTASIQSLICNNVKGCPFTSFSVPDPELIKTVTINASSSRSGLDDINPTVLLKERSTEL

COX‐2 = tested on: COX‐2; parameters: method as in PMID 824724; details: measured in rabbit cell; cited from earlier work
[1] = at 100 μM, highest tested concentration
[2] = at 100 μM, highest tested concentration, mean ± SEM
[3] = SI = % inhibition COX‐2 / % inhibition COX‐1 at 100 µM

T1 sequence (P23219 24-599): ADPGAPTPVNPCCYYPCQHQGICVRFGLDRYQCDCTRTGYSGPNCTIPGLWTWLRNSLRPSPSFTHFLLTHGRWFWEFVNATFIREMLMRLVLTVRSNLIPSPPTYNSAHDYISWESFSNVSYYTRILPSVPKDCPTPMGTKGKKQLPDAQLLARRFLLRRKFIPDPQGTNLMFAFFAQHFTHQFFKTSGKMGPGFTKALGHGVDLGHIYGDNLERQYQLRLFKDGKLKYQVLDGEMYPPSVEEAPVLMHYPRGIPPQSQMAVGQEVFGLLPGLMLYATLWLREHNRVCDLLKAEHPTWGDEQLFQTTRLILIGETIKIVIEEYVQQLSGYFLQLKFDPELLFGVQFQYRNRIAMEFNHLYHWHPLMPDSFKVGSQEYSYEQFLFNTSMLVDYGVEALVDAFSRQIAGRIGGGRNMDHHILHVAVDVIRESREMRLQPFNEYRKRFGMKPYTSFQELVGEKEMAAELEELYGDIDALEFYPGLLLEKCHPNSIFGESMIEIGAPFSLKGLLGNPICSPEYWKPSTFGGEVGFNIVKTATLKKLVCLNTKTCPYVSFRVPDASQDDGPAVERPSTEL

Compound	inhibition at 100 µM (human recombinant COX‐1; [1])	inhibition at 100 µM (human recombinant COX‐2; [2])	further results
COc1ccc(/C=C/C(=O)c2c(OC)cc(OC)c(C(=O)/C=C/c3ccc(OC)cc3)c2OC)cc1 [Compound 11, (2E,2′E)−1,1′‐(2,4,6‐Trimethoxy‐1,3‐phenylene)bis[3‐(4‐methoxyphenyl)prop‐2‐en‐1‐one]]	< 30%	< 30%	
COc1cc(/C=C/C(=O)c2c(O)cc(O)c(C(=O)/C=C/c3ccc(O)c(OC)c3)c2O)ccc1O [Compound 28, (2E,2′E)−1,1′‐(2,4,6‐Trihydroxy‐1,3‐phenylene)bis[3‐(4‐hydroxy‐3‐methoxyphenyl)prop‐2‐en‐1‐one]]			IC50 (human recombinant COX‐1): 37 ± 4 µM; Selectivity index (SI) (human recombinant COX‐2; SI = IC50 COX‐1 / IC50 COX‐2): 2.6; IC50 (human recombinant COX‐2; mean ± SEM): 14.6 ± 0.5 µM
COc1cc(OC)c(C(=O)/C=C/c2ccc(O)cc2)c(OC)c1C(=O)/C=C/c1ccc(O)cc1 [Compound 12, (2E,2′E)−1,1′‐(2,4,6‐Trimethoxy‐1,3‐phenylene)bis[3‐(4‐hydroxyphenyl)prop‐2‐en‐1‐one]]	~50%	~50%	Selectivity index (SI) (human recombinant COX‐2; [3]): 0.9
COc1cc(/C=C/C(=O)c2c(OC)cc(OC)c(C(=O)/C=C/c3ccc(O)c(OC)c3)c2OC)ccc1O [Compound 13, (2E,2′E)−1,1′‐(2,4,6‐Trimethoxy‐1,3‐phenylene)bis[3‐(4‐hydroxy‐3‐methoxyphenyl)prop‐2‐en‐1‐one]]			IC50 (human recombinant COX‐1): 24 ± 3 µM; Selectivity index (SI) (human recombinant COX‐2; SI = IC50 COX‐1 / IC50 COX‐2): 4.4; IC50 (human recombinant COX‐2; mean ± SEM): 5.5 ± 0.7 µM
COc1ccc(/C=C/C(=O)c2c(O)cc(O)c(C(=O)/C=C/c3ccc(OC)cc3)c2O)cc1 [Compound 27, (2E,2′E)−1,1′‐(2,4,6‐Trihydroxy‐1,3‐phenylene)bis[3‐(4‐methoxyphenyl)prop‐2‐en‐1‐one]]			IC50 (human recombinant COX‐1): 48 ± 2 µM; Selectivity index (SI) (human recombinant COX‐2; SI = IC50 COX‐1 / IC50 COX‐2): 1.2; IC50 (human recombinant COX‐2; mean ± SEM): 44 ± 3 µM
COc1ccc(/C=C/C(=O)c2c(OC)cc(OC)c(C(=O)/C=C/c3ccc(OC)c(OC)c3)c2OC)cc1OC [Compound 10, (2E,2′E)−1,1′‐(2,4,6‐Trimethoxy‐1,3‐phenylene)bis[3‐(3,4‐dimethoxyphenyl)prop‐2‐en‐1‐one]]	< 30%	< 30%	
Cc1c(Cl)cccc1Nc1ccccc1C(=O)O [tolfenamic acid]			IC50 (COX‐2): 0.64 µM
COc1cc(OC)c(C(=O)/C=C/c2ccc(Br)cc2)c(OC)c1C(=O)/C=C/c1ccc(Br)cc1 [Compound 14, (2E,2′E)−1,1′‐(2,4,6‐Trimethoxy‐1,3‐phenylene)bis[3‐(4‐bromophenyl)prop‐2‐en‐1‐one]]	< 30%	< 30%	
(2E,2′E)−1,1′‐{2,4,6‐Tris[(2‐methoxyethoxy)methoxy]−1,3‐phenylene}bis(3‐{3,4‐bis[(2‐methoxyethoxy)methoxy]phenyl}prop‐2‐en‐1‐one) [Compound 24]			COX‐1 Inhibition, % (human recombinant COX‐1; [1]): <30% ^100 μM; COX‐2 Inhibition, % (human recombinant COX‐2; [2]): <30% ^100 μM

Now from value to compound, other results behind:

inhibition at 100 µM (human recombinant COX‐1; [1])	inhibition at 100 µM (human recombinant COX‐2; [2])	Compound	further results
< 30%	< 30%	COCOc1cc(OCOC)c(C(=O)/C=C/c2ccc(OC)c(OC)c2)c(OCOC)c1C(=O)/C=C/c1ccc(OC)c(OC)c1 [Compound 19, (2E,2′E)−1,1′‐[2,4,6‐Tris(methoxymethoxy)−1,3‐phenylene]bis[3‐(3,4‐dimethoxyphenyl)prop‐2‐en‐1‐one]]	
< 30%	< 30%	COCOc1cc(OCOC)c(C(=O)/C=C/c2ccc(Br)cc2)c(OCOC)c1C(=O)/C=C/c1ccc(Br)cc1 [Compound 22, (2E,2′E)−1,1′‐[2,4,6‐Tris(methoxymethoxy)−1,3‐phenylene]bis(3‐(4‐bromophenyl)prop‐2‐en‐1‐one)]	
< 30%	< 30%	COCOc1ccc(/C=C/C(=O)c2c(OCOC)cc(OCOC)c(C(=O)/C=C/c3ccc(OCOC)cc3)c2OCOC)cc1 [Compound 25, (2E,2′E)−1,1′‐[2,4,6‐Tris(methoxymethoxy)−1,3‐phenylene]bis{3‐[4‐(methoxymethoxy)phenyl]prop‐2‐en‐1‐one}]	
< 30%	< 30%	COCOc1ccc(/C=C/C(=O)c2c(OCOC)cc(OCOC)c(C(=O)/C=C/c3ccc(OCOC)c(OC)c3)c2OCOC)cc1OC [Compound 21, (2E,2′E)−1,1′‐[2,4,6‐Tris(methoxymethoxy)−1,3‐phenylene]bis{3‐[3‐methoxy‐4‐(methoxymethoxy)phenyl]prop‐2‐en‐1‐one}]	
< 30%	< 30%	COc1cc(OC)c(C(=O)/C=C/c2cccc(Cl)c2)c(OC)c1C(=O)/C=C/c1cccc(Cl)c1 [Compound 15, (2E,2′E)−1,1′‐(2,4,6‐Trimethoxy‐1,3‐phenylene)bis[3‐(3‐chlorophenyl)prop‐2‐en‐1‐one]]	
40 to 50%	40 to 50%	O=C(/C=C/c1ccc(Br)cc1)c1c(O)cc(O)c(C(=O)/C=C/c2ccc(Br)cc2)c1O [Compound 29, (2E,2′E)−1,1′‐(2,4,6‐Trihydroxy‐1,3‐phenylene)bis[3‐(4‐bromophenyl)prop‐2‐en‐1‐one]]	Selectivity index (SI) (human recombinant COX‐2; [3]): 1.1; COX‐2 IC50, µM or Inhibition, % (human recombinant COX‐2; cell carries superscript 100 μM (highest tested concentration)): 58 ± 3 µM ^100 μM
40 to 50%	40 to 50%	COc1ccc(/C=C/C(=O)c2c(O)cc(O)c(C(=O)/C=C/c3ccc(OC)c(OC)c3)c2O)cc1OC [Compound 26, (2E,2′E)−1,1′‐(2,4,6‐Trihydroxy‐1,3‐phenylene)bis[3‐(3,4‐dimethoxyphenyl)prop‐2‐en‐1‐one]]	Selectivity index (SI) (human recombinant COX‐2; [3]): 0.8
< 30%	< 30%	COCOc1cc(OCOC)c(C(=O)/C=C/c2ccc(OC)cc2)c(OCOC)c1C(=O)/C=C/c1ccc(OC)cc1 [Compound 20, (2E,2′E)−1,1′‐[2,4,6‐Tris(methoxymethoxy)−1,3‐phenylene]bis[3‐(4‐methoxyphenyl)prop‐2‐en‐1‐one]]	
